Paper PMC11087554, “The STING agonist IMSA101 enhances chimeric antigen receptor T cell function by inducing IL-18 secretion” (Nature Communications, 2024)

Target: T1, STING (stimulator of interferon genes) (Homo sapiens, UniProt Q86WV6)
T1 construct: gene STING1; endogenous STING in THP1-ISG-luc cells
Test: THP1-ISG-luc ISRE reporter assay with PFO permeabilisation; IFN-beta response lost in STING-KO THP1 cells
Format: cell-based

T1 sequence (Q86WV6 whole entry, looked up): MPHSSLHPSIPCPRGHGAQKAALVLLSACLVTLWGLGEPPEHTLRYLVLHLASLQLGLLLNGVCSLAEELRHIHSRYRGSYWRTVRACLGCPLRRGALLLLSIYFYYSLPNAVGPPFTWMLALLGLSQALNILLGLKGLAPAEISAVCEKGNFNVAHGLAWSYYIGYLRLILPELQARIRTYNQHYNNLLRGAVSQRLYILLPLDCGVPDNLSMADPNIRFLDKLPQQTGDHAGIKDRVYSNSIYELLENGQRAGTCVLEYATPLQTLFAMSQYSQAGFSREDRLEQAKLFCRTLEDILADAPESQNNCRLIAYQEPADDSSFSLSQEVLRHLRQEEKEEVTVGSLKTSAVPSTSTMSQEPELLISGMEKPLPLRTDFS

Substance: IMSA101
- EC50: 20 to 30 nM
